Measurements as given in paper PMC3148428 (2011).

Target: T1, ABCG2 (Rattus norvegicus, UniProt Q80W57)
T1 sequence (Q80W57 1-657): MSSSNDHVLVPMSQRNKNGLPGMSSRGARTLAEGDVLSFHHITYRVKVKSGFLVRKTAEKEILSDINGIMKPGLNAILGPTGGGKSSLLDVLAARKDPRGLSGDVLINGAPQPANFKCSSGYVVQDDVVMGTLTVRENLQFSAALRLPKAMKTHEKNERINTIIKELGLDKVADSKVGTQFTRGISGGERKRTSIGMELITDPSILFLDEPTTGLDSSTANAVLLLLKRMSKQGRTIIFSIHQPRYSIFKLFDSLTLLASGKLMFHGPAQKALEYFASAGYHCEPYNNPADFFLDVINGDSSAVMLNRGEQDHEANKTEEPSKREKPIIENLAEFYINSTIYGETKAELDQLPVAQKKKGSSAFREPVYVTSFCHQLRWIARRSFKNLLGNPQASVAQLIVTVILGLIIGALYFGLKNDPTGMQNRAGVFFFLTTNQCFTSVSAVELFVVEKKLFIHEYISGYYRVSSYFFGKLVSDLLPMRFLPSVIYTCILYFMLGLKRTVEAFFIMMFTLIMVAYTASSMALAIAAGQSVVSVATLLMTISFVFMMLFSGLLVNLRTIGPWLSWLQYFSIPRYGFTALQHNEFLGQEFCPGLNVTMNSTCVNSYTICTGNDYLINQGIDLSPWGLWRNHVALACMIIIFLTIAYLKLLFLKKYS

IC50: 0.0932 µM
SMILES: Cc1cn(-c2cc(NC(=O)c3ccc(C)c(Nc4nccc(-c5cccnc5)n4)c3)cc(C(F)(F)F)c2)cn1 [Tasigna]
